Experimental data as given in paper PMC8930249, “Elucidating the Novel Mechanism of Ligustrazine in Preventing Postoperative Peritoneal Adhesion Formation” (Oxidative Medicine and Cellular Longevity, 2022).

Biological target: T1, PPARγ (Homo sapiens, UniProt P37231)
T1 construct: gene PPARG; recombinant His-tagged PPARγ (pET10), wild type
T1 sequence (P37231 1-505): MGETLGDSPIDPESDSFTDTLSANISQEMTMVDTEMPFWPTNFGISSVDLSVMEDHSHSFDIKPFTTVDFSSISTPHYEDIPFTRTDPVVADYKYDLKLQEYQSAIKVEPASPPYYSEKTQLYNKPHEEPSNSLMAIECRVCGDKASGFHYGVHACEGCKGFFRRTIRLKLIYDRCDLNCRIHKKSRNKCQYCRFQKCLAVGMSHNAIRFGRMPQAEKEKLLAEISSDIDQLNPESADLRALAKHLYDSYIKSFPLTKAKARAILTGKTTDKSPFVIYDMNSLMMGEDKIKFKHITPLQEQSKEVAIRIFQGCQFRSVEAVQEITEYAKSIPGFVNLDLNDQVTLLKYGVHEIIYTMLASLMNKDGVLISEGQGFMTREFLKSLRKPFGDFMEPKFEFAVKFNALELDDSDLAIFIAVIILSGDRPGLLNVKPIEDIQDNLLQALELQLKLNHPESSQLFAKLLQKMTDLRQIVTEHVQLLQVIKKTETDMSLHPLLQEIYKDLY
Experiment: biolayer interferometry (Octet RED […]), Ni-NTA immobilised His-tagged protein
Type: binding

Kd: 39.4 µM
Structure (SMILES): Cc1nc(C)c(C)nc1C [Ligustrazine]
